SMILES strings stand for the structures.

Usually DC50 stands for the concentration giving 50% degradation. Higher therefore signals degradation only at high concentration.

This assay has as its target T1, ERα (Homo sapiens, UniProt P03372).
T1 construct: endogenous in cells; host or cells: T47D
T1 sequence (P03372 1-595): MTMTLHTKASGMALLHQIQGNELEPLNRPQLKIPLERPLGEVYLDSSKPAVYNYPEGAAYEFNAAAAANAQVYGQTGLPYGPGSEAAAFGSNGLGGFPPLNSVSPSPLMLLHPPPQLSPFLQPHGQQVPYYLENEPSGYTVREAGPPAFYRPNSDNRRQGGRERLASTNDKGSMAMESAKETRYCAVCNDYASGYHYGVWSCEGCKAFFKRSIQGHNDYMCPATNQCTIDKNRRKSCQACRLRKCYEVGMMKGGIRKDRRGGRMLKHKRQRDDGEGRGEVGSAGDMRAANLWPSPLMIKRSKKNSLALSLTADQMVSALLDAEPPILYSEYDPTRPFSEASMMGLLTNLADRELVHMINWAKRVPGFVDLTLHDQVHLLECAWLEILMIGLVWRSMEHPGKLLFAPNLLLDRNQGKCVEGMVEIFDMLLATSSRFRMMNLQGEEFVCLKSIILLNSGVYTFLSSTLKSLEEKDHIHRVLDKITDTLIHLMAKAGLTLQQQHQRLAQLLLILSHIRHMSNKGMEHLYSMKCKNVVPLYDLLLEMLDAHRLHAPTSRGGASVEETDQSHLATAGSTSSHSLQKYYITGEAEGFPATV
Briefly: ERα degradative activity in T47D cells (Western blot, 6 hours after administration). It counts as cell-based. To be noted: T47D cell line, ERα degradation. As for the experimental part: T47D cells were plated in 24-well plates at 1.5×10^5 cells/well in the RPMI growth medium containing 10% FBS and 1× Penicillin Streptomycin. MCF7 cells were plated in 24-well plates at 1.5×10^5 cells/well in the DMEM growth medium containing 10% FBS and 1× Penicillin Streptomycin. CAMA1 cells were plated in 24-well plates at 2×10^5 cells/well in the RPMI growth medium containing 20% FBS and 1× Penicillin Streptomycin. They were then incubated at 37° C. overnight. The following day, the test compound was administered to the cells by using 1000× compound stock solution prepared in DMSO at various concentrations. After administration of the compound, the cells were then incubated at 37° C. for 6 hours.
Upon completion, the cells were washed with PBS and protein was collected in Laemmli sample buffer (1×; VWR International). Proteins in cell lysate were separated by SDS-PAGE and transferred to Odyssey nitrocellulose membranes (Licor) with Iblot® dry blotting transfer system (ThermoFisher). Nonspecific binding was blocked by incubating membranes with Intercept Blocking Buffer (Licor) for 1 hour at room temperature with gentle shaking. The membranes were then incubated overnight at 4° C. with Primary antibodies rabbit anti-ER (Cell Signaling, 8644) and mouse anti-GAPDH (1:5,000, Santa Cruz Biotechnology, sc-47724) diluted in Intercept Blocking Buffer containing 0.1% Tween 20. After washing 3 times with TBS-T, the membranes were incubated with IRDye® 800CW goat anti-mouse IgG (1:20,000, Licor) or IRDye® 800CW goat anti-rabbit IgG (1:20,000, Licor) for 1 hour. After TBS-T washes, membranes were rinsed in TBS and scanned on Odyssey® CLx Imaging System (Licor). The bands were quantified using Image Studio™ Software (Licor).
(In western blotting, separated proteins are transferred to a membrane and probed.)

For `COc1cccc([C@H]2COc3cc(O)ccc3C2c2ccc(N3CCC(CN4CCN(c5ccc6c(c5)CN([C@H]5CCC(=O)NC5=O)C6=O)CC4)CC3)cc2)c1` (relative stereo) [Compound 56, cis-(S)-3-(5-(4-((1-(4-(7-hydroxy-3-(3-methoxy-phenyl)chroman-4-yl)phenyl)piperidin-4-yl)methyl)piperazin-1-yl)-1-oxoisoindolin-2-yl)piperidine-2,6-dione], it took 1.7 nM to reach half-maximal degradation (DC50).
